These results are taken from patent publication US4379150A, “Dibenz[b,f][1,4]oxazepine derivatives, process for preparing the same, and pharmaceutical compositions comprising the same” (Chugai Seiyaku Kabushiki Kaisha, priority 1980, dated 1983).

In general, inhibition refers to the relative decrease from the control value, in per cent. Read a high inhibition as strong suppression.

The structures appear in SMILES notation. Counter-ions that a name gives are not always drawn.

The subject of the assay is isolated, donor-perfused rat hearts. Description: inhibition of coronary vasoconstriction induced by acetylcholine 0.3 μg in isolated, donor-perfused rat hearts. The following applies: administered in the artery; for inhibition at 0.03 mg: 30 μg. On the procedure:
The effect of the compounds of the present invention to inhibit coronary vasoconstriction was studied. That vasoconstriction was induced by acetylcholine 0.3 μg in isolated, donor-perfused rat hearts (K. Sakai, Brit. J. Pharmacol., 68, 625-638, 1980), and determined by measuring the arterial perfusion pressure with a pressure transducer (Nihon Kohden MPU--0.5). The compounds of the present invention were administered in the artery in an amount between 30 and 60 μg.

As for `CCOC(=O)c1ccc2c(c1)N(CCN(C)C)C(=O)c1cc(C(C)C)cc(C(C)C)c1O2` [Comp. of Ex. 1, 2,4-diisopropyl-10[2-(dimethylamino)ethyl]-8-ethoxycarbonyl-dibenz[b,f][1,4] oxazepine-11(10H)-one], the inhibition at 0.03 mg was at least 41%.

For the compound `COc1ccc2c(c1)N(CCCN(C)C)C(=O)c1cc(C(C)C)cc(C(C)C)c1O2` [Comp. of Ex. 5], the inhibition at 0.03 mg lay within 20 to 30%.

Turning to `CCC(C)(C)c1ccc2c(c1)C(=O)N(CCCN(C)C)c1ccccc1O2` [Comp. of Ex. 10], the inhibition at 0.03 mg was in the range of 20 to 30%.

For the compound `COc1ccc2c(c1)N(CCN(C)C)C(=O)c1cc(C(C)C)cc(C(C)C)c1O2` [Comp. of Ex. 4], the inhibition at 0.06 mg (60 μg) lay in the range of 20 to 30%.

In turn, `CC(C)c1cc2c(c(C(C)C)c1)Oc1ccc(C(=O)O)cc1N(CCN(C)C)C2=O` [Comp. of Ex. 15, 2,4-diisopropyl-10-[2-(dimethylamino)ethyl]-8-carboxy-dibenz[b,f][1,4]-oxazepine-11(10H)-one hydrochloride] registered an inhibition at 0.03 mg of 20 to 30%.

In turn, `CC(C)c1cc2c(c(C(C)C)c1)Oc1ccc(C(N)=O)cc1N(CCN(C)C)C2=O` [Comp. of Ex. 17, 2,4-diisopropyl-10-[2-(dimethylamino)ethyl]-8-carbamoyl-dibenz[b,f][1,4]oxazepine-11(10H)-one] displayed an inhibition at 0.03 mg of 20 to 30%.

In turn, `CCOC(=O)c1ccc2c(c1)N(CCCN(C)C)C(=O)c1cc(C(C)(C)CC)ccc1O2` [Comp. of Ex. 9] gave an inhibition at 0.03 mg of at least 41%.

`CCOC(=O)c1ccc2c(c1)N(CCCN(C)C)C(=O)c1cc(C(C)C)cc(C(C)C)c1O2` [Comp. of Ex. 14] displayed an inhibition at 0.03 mg of 31 to 40%.

The compound `CCOC(=O)c1ccc2c(c1)N(CCN(C)C)C(=O)c1cc(C(C)(C)CC)ccc1O2` [Comp. of Ex. 8] registered an inhibition at 0.03 mg of 31 to 40%.

For the compound `CC(C)c1cc2c(c(C(C)C)c1)Oc1ccccc1N(CCCN(C)C)C2=O` [Comp. of Ex. 3], the inhibition at 0.03 mg was at least 41%.

Take `CC(C)c1cc2c(c(C(C)C)c1)Oc1ccccc1N(CCN(C)C)C2=O` [Comp. of Ex. 2]: the inhibition at 0.03 mg was 31 to 40%.
